# Earlier results as cited in patent US7198802B2, “Tablet obtained by direct compression comprising 4-amino-1-hydroxybutylidene-1,1-bisphosphonic acid as active ingredient” (Zentiva A.S., priority 2000, dated 2007).
# Settings: atmospheric relative humidity
row,relative humidity at which moisture / water content rises,Compound
1,about 98%,"OC[C@@H](O)[C@@H](O)[C@H](O)[C@H](O)CO [mannitol, Mannitol]"
2,above 90%,OC[C@H]1O[C@@H](O[C@H]2[C@H](O)[C@@H](O)C(O)O[C@@H]2CO)[C@H](O)[C@@H](O)[C@H]1O (some centres unmarked) [Lactose]
